We go through 35 molecules from ChEMBL document CHEMBL1201862, “PubChem BioAssay data set” (2004).

Active and inactive are the calls of the source. Rule as the data show it, for most assays here: actives have a measured EC50 and inactives only a lower limit.

As usually defined, the IC50 is the point on the concentration scale where inhibition reaches its midpoint. As a reminder, the AC50 is the concentration at which the activity in the assay is half-maximal. By EC50 is commonly meant the midpoint of the concentration-response curve.

In test [1] the target is T1, Fatty acid synthase (Homo sapiens, UniProt P49327). Description: inhibition of human FAS-TE enzyme activity – biochemical, kinetic fluorescence intensity, dose response (AID 624326).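 Also: rate of fluorescence rise from hydrolysis of a fluorogenic O-methyl fluorescein ester substrate.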 The class given is functional.
T1 sequence (P49327 whole entry): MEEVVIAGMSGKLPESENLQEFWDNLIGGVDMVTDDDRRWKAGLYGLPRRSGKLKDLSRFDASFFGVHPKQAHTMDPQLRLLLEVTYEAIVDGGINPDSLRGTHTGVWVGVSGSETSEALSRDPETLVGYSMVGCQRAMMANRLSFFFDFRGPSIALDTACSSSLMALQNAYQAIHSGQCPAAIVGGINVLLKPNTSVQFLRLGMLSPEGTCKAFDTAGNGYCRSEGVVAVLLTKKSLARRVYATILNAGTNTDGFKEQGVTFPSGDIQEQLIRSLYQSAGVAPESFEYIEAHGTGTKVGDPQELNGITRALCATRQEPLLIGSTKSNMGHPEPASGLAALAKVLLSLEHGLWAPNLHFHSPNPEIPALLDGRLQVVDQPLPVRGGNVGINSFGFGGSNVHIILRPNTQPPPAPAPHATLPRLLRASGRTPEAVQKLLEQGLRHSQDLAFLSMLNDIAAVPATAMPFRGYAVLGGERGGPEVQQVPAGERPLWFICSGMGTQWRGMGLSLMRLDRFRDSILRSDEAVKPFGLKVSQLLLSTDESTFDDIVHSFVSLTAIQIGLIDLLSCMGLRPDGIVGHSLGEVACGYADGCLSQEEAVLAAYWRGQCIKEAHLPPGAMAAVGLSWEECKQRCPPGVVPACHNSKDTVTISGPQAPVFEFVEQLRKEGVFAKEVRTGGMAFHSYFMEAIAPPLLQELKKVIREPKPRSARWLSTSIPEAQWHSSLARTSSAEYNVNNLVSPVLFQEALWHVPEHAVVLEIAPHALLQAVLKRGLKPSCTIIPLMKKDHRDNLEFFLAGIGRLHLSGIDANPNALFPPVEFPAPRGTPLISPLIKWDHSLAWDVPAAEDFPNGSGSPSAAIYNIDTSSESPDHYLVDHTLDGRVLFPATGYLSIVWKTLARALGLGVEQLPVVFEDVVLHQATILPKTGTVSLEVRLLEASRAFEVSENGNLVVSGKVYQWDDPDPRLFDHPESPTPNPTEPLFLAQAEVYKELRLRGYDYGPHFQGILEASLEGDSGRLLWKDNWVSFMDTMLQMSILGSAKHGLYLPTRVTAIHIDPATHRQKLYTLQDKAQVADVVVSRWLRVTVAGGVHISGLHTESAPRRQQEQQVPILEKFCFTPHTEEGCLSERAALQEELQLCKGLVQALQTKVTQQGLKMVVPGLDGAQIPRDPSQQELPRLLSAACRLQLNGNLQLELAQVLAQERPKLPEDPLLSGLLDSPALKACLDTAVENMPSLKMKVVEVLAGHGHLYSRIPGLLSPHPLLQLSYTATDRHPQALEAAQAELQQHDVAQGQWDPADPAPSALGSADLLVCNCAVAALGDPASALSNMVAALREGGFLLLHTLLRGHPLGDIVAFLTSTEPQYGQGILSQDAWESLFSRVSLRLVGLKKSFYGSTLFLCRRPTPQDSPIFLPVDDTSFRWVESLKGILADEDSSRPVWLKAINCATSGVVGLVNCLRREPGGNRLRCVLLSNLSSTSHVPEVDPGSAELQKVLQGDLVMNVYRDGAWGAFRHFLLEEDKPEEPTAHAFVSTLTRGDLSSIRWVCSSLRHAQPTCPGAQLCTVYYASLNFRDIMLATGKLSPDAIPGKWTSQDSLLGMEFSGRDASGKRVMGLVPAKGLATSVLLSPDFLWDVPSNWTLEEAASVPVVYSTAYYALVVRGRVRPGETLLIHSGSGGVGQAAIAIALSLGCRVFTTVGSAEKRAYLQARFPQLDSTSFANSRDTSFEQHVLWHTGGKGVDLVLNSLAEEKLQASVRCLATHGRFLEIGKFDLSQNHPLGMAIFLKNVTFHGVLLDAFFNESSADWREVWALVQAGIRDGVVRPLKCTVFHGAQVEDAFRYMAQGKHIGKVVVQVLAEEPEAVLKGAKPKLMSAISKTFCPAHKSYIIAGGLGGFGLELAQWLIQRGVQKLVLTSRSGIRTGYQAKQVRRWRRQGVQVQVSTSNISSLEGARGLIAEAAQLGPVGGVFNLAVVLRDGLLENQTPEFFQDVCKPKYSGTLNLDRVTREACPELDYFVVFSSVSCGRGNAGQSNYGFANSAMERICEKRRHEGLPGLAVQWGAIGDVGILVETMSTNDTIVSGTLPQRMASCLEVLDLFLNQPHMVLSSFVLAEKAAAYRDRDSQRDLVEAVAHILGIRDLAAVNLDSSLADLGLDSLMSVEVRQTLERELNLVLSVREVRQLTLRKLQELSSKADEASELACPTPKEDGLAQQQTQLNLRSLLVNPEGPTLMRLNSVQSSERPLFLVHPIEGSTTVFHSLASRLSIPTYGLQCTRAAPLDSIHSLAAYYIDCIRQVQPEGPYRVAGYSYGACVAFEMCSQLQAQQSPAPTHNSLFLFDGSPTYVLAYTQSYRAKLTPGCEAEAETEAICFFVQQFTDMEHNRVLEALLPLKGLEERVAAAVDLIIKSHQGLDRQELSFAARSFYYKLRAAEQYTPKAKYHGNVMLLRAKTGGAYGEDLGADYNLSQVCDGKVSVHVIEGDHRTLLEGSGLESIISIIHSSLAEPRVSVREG
Test [2] deals with T1, Fatty acid synthase. Description: inhibition of human FAS-TE enzyme activity – biochemical, endpoint fluorescence intensity, uHTS hits, dose response (AID 624327).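 Also: fluorescence from hydrolysis of an O-methyl fluorescein acyl ester substrate by the enzyme.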 The class given is functional.
Test [3] has as its target FAD-linked sulfhydryl oxidase ALR (Homo sapiens, UniProt P55789). Kind of test: ALR-catalysed DTT oxidation blockers – biochemical, H2O2 detection, luminescence, cherry-pick, dose response (AID 493248).
Test [4] in a line: Luminescence Cell-Based Dose Response HTS to Identify Inhibitors of 5'UTR Stem-Loop Driven Prion Protein mRNA Translation in H4 Neuroglioblastoma Cells. [Related pubchem assays: 1827 (Project Summary), 1813 (Primary HTS)]. The class given is functional.
The nature of test [5]: alpha-synuclein stem-loop luciferase translation blockers – H4 neuroglioma cells, luminescence, confirmation (AID 1988). The class given is functional, cell-based.
Test [6] is described as follows: luciferase reporter signal suppression in cells – H4 neuroglioma cells, luminescence, dose response (AID 1990). The class given is functional, cell-based. In general terms: Reporter assays use an easily measured gene product as a stand-in for the process of interest.
In test [7] the target is Genome polyprotein (dengue virus type 2, UniProt P29990). Description: flavivirus cap methylation enzyme inhibition – biochemical, confirmation dose response, primary screen (AID 588689). The class given is functional.
Sequence of Genome polyprotein (P29990 2492-3391 limits assumed): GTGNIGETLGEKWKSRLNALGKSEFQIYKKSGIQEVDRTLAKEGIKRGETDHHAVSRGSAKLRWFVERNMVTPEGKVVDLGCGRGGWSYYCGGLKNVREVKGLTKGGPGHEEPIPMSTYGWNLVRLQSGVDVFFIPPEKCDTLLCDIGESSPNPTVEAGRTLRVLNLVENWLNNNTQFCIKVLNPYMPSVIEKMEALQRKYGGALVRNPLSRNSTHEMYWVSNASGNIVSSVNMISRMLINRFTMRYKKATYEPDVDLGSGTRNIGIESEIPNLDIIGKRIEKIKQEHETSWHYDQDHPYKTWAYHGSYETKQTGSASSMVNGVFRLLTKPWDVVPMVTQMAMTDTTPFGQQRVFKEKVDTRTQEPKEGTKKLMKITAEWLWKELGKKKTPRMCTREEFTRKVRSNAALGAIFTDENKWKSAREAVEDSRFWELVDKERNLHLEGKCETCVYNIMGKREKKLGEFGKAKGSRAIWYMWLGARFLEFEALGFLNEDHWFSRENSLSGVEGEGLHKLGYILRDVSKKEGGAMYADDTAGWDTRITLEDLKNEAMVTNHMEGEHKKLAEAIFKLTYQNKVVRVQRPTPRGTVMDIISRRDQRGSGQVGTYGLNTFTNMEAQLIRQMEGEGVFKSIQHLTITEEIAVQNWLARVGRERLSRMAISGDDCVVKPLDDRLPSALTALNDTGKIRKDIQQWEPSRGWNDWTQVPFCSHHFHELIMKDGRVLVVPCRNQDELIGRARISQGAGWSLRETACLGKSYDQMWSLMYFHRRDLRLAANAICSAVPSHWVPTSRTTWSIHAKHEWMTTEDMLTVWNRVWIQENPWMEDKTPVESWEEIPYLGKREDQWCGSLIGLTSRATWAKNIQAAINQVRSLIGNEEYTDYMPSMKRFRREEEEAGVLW
Test [8] can be described thus: Luminescence Cell-Based Dose Response HTS to Identify Activators of Luciferase Translation or Activity in H4 […] Cells. [Related pubchem assays: 1829 (Project Summary), 1814 (Primary HTS)]. The class given is functional.
Test [9] concerns H4. Description: Luminescence Cell-Based Dose Response HTS to Identify Activators of 5'UTR Stem-Loop Driven Prion Protein mRNA Translation in H4 Neuroglioblastoma Cells. [Related pubchem assays: 1829 (Project Summary), 1814 (Primary HTS)]. The class given is functional. The note with it: Homo sapiens.
Test [10] can be described thus: Luminescence Cell-Based Dose Confirmation HTS to Identify Activators of 5'UTR Stem-Loop Driven Alpha-Synuclein mRNA Translation in H4 Neuroglioblastoma Cells. [Related pubchem assays: 1829 (Project Summary), 1814 (Primary HTS)]. The class given is functional.
The target in test [11] is T2, Streptokinase A (Streptococcus pyogenes serotype M1, UniProt P10520).
T2 sequence (P10520 whole entry): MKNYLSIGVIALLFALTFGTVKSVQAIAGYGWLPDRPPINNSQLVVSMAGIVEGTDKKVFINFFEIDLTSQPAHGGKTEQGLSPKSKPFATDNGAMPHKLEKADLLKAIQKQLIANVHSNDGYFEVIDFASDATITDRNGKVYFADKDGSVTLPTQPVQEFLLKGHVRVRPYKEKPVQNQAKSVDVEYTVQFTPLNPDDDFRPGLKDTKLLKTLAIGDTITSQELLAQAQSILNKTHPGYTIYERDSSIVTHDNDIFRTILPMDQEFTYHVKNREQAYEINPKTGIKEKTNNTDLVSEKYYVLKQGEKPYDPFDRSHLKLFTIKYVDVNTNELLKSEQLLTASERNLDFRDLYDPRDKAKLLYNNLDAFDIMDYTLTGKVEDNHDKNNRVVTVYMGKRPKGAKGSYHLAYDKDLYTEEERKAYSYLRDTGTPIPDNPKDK
Kind of test: viability-normalized secreted streptokinase activity reduction – plasminogen activation absorbance, OD405, dose response (AID 1914).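 Also: secreted streptokinase activity via plasminogen activation per viability signal from cell pellet.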 The class given is functional, Streptococcus pyogenes M1 GAS.

The test system of test [12] is Streptococcus sp. 'group A'. Description: Streptococcus pyogenes SK(-)GAS viability under kanamycin – luminescence, BacTiterGlo, confirmation, counter-screen for streptokinase expression inhibitor project, dose response (AID 1900). The class given is functional, organism-based. On the technique in general: A counterscreen serves to expose hits that act by an unwanted route or on another target.

Test [13] has as its system Streptococcus. Kind of test: GAS UMAA2166 growth inhibition – luminescence, BacTiterGlo, counter-screen for streptokinase expression inhibitor project, dose response (AID 1915).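 Also: potency for reduction of bacterial viability or growth.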 The class given is functional, organism-based.
Test [14] concerns the target T3, RNA-binding protein pos-1 (Caenorhabditis elegans, UniProt G5EF15).
T3 sequence (G5EF15 whole entry): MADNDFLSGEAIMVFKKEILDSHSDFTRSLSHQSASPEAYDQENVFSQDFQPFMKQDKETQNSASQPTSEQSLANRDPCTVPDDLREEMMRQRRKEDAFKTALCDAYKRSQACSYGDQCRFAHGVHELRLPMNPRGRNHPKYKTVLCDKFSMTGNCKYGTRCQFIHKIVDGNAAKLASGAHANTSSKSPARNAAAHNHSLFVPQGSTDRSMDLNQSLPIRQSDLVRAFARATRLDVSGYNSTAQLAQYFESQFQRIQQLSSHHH
Description: disruptors of C. elegans POS-1 RNA interaction – biochemical, fluorescence polarization, dose response (AID 1964).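 Also: purified POS-1 fused to maltose binding protein made in E. coli; potency of compounds blocking POS-1 binding to fluorescent RNA.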

Test [15] addresses T4, Zinc finger protein mex-5 (Caenorhabditis elegans, UniProt Q9XUB2).
T4 sequence (Q9XUB2 whole entry): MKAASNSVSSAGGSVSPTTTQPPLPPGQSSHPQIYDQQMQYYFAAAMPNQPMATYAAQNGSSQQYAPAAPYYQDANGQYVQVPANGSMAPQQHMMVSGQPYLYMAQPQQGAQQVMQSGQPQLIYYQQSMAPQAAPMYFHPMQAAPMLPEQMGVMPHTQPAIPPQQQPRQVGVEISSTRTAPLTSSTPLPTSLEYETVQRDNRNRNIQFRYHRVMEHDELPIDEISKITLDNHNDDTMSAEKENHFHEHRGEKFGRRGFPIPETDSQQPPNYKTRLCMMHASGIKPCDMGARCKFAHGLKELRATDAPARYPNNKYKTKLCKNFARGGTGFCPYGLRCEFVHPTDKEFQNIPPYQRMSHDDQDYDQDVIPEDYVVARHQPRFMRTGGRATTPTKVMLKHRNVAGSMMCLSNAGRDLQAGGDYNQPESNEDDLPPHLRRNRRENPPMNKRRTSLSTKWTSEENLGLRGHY
Kind of test: potency of MEX-5 RNA-binding blockers – biochemical, C. elegans, fluorescence polarization, dose response (AID 1960). (In general: Polarisation of emitted light reports the rotation of a fluorescent probe.)

Sequence of FAD-linked sulfhydryl oxidase ALR (P55789 whole entry): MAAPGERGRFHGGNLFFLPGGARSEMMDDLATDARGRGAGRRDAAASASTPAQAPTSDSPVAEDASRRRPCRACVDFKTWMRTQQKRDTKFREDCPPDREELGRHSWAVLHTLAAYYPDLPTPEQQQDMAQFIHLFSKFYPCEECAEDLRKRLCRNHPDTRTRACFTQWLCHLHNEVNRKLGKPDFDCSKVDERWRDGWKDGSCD

With `CN1C[C@H](C(=O)NC2(C)OC3(O)[C@@H]4CCCN4C(=O)[C@H](Cc4ccccc4)N3C2=O)CC2c3cccc4[nH]cc(c34)C[C@H]21` (stereo partly drawn), the figures for the IC50 in test [1] and in test [2] were 11.8 µM (active) and 10.3 µM (active), respectively.

On to `N=C(NOC(=O)c1ccco1)c1ccc(Cl)cc1`, for which the AC50 in test [3] is 13.1 µM (active).

`COc1ccc(/C=N/NC(=O)c2ccco2)cc1Cn1nc(C)c([N+](=O)[O-])c1C`: the EC50 in test [4], in [5] and in test [6] was > 120 µM (not active) each time.

`Cc1ccc2c(c1)C(=O)C(=O)N2CCCOc1ccccc1C`: in test [7], the IC50 was > 100 µM (active).

As to `NNC(=O)c1cccc(COc2ccccc2Br)c1`, the AC50 in test [3] is > 100 µM (inactive).

For the molecule `FC(F)(F)c1c[nH]c2c(-c3ccccc3)nnc-2c1`, the figures for the EC50 in [8], in test [9] and in [10] were 19.3 µM (active), 13.9 µM (active) and 1.29 µM (active), respectively.

On to `COC(=O)C1=C(C)n2nnnc2NC1c1ccc(Cl)cc1` (stereo not drawn), for which the EC50 in test [4] was > 120 µM (not active); in [5], > 120 µM (not active); in test [6] it was 20.6 µM (active).

Consider `COc1ccc(C(=O)NCCNc2ncc(C(F)(F)F)cc2Cl)cc1[N+](=O)[O-]`, for which the half-maximal inhibitory concentration (IC50) was 12 µM (active) in test [1] and 12.7 µM (active) in [2].

As to `O=C(NCCc1cccs1)C1CC(c2ccc([N+](=O)[O-])cc2)=NO1` (stereo not drawn), the EC50 in test [8] was 50.8 µM (active); in [9], 16.2 µM (active); in test [10] it was 118 µM (active).

Turning to `Cc1cccc(CSC2=NCCN2C(=O)c2ccco2)c1`, the AC50 in test [3] is 11 µM (active).

On to `CCN(CCCNC(=O)CNC(=O)Cn1cnc2ccccc2c1=O)c1ccccc1`, for which the AC50 in test [3] is 0.729 µM (active).

On to `Cc1ccc(C)c(Nc2c([N+](=O)[O-])ccc3nonc23)c1`, for which the EC50 was > 120 µM (not active) in test [4], 53.7 µM (active) in test [5] and 19.9 µM (active) in test [6].

Take `CCOc1ccc(CCNC(=O)COC(=O)c2cc([N+](=O)[O-])ccc2N2CCOCC2)cc1OCC`: the concentration for half-maximal inhibition (IC50) in [1] was 9.59 µM (active); in test [2], 10.1 µM (active).

`Nc1ccc(Sc2cc(Cl)nc(N)n2)cc1`: the values for the EC50 in test [4], in test [5] and in test [6] were > 120 µM (not active), 99.5 µM (active) and > 120 µM (not active), respectively.

With `CCc1ccc(NC(=O)c2[nH]c(C)c(C(C)=O)c2C)cc1`, the EC50 in [8] is 2.6 µM (active); in test [10], 1.62 µM (active).

In the case of `COc1ccc(C2CC23N=C(c2ccccc2)OC3=O)cc1` (stereo not drawn), the IC50 was 0.712 µM (active) in [1] and 0.724 µM (active) in [2].

For `Cc1cc(Br)ccc1NC(=O)CN(C)C(=O)c1cc([N+](=O)[O-])ccc1N1CCOCC1`, the IC50 in test [1] was 4.65 µM (active); in [2], 8.23 µM (active).

Turning to `Cc1cc(-c2nnc3n2N=C(c2ccc(F)cc2)CS3)[nH]n1`, the EC50 in [8], in [9] and in test [10] was > 120 µM (not active) throughout.

As to `COc1cccc(/C=C/c2nc(O)nc(O)c2[N+](=O)[O-])c1O`, in test [7], the IC50 was 72.5 µM (active). In test [3], the AC50 is 39.1 µM (active).

In the case of `Nc1c(Cl)cc(C2=NCCn3c2c2ccc([N+](=O)[O-])cc2[n+]3[O-])cc1Cl`, the EC50 in test [11] is > 150 µM (not active); in test [4] it was > 120 µM (not active); in test [12] it was 2 µM (active); in [5], 8.15 µM (active); in test [6], 14.7 µM (active); in test [13], 5.67 µM (active).

Regarding `COc1ccc(C(=O)CCN2CCc3cc(OC)c(OC)cc3C2)cc1`, the AC50 in [3] is 1.84 µM (active).

`Cc1nn(CCOc2ccc(Br)cc2)c(C)c1[N+](=O)[O-]`: the values for the IC50 in test [1] and in test [2] were 24.6 µM (inactive) and 15.9 µM (active), respectively.

As for `Cc1nn(-c2cc(C)c3ccccc3n2)c2c1CCC2`, the concentration for a half-maximal effect (EC50) in test [8] is 18.8 µM (active); in [9], 80.3 µM (active); in test [10], 4.27 µM (active).

Consider `CN(C)S(=O)(=O)c1ccc(Cl)c(NC(=O)CN2CCCCCC2)c1`, for which the EC50 in test [4], in [5] and in [6] was > 120 µM (not active) each time.

In the case of `Cc1ccc(NC2CCCN(C(=O)Cc3nonc3C)C2)cc1C` (stereo not drawn), in [3], the AC50 was 2.54 µM (active).

As for `COCCCn1c(SCC(=O)Nc2ccc(C(C)=O)cc2)nc2ccccc2c1=O`, the EC50 in test [8] is 22.8 µM (active); in test [9] it was 68.6 µM (active); in test [10], 13.9 µM (active).

For `CCSc1nnc(-c2c[nH]c3ccccc23)o1`, the EC50 was 21.1 µM (active) in [8], 24.7 µM (inconclusive) in [9] and 63.9 µM (active) in test [10].

Take `CC(C)c1ccc(/C=C2\SC(=O)N(CC(=O)NCCCn3ccnc3)C2=O)cc1`: the EC50 in test [8] was 0.418 µM (active); in test [9] it was 18.7 µM (active); in test [10], 29.8 µM (active). Moreover, the AC50 in [3] is 1.75 µM (active).

Consider `O=C(O)CN1C(=O)/C(=C\c2ccccc2OCc2ccc(F)cc2)SC1=S`, for which, in test [7], the 50% inhibitory concentration (IC50) is 43.2 µM (active).

`CC(=O)N(C(C)=O)N1C(=O)C2C3c4ccccc4C(c4ccccc43)C2C1=O` (stereo not drawn): the IC50 in test [7] was 53.8 µM (active).

As to `Cc1[nH]c2ccccc2c1C(=O)COc1ccccc1`, the results for the EC50 in [8], in [9] and in test [10] were 16.4 µM (active), 13.2 µM (active) and 18.7 µM (active), respectively.

`COC(=O)c1ccc(NS(=O)(=O)NC(=O)c2cn(C)c3ccccc23)cc1`: the concentration giving a half-maximal response (EC50) in test [8], in [9] and in test [10] was > 120 µM (not active) each time.

Consider `COc1ccc(C(=O)C[n+]2ccccc2C=NO)cc1`, for which the EC50 was 12.1 µM (active) in test [8], 32 µM (active) in test [9] and 12.5 µM (active) in test [10].

As to `Cc1ccc(S(=O)(=O)c2cc3c(=O)n4ccccc4nc3n(CCc3ccccc3)c2=N)cc1`, the EC50 is > 120 µM (not active) in test [8]; 0.713 µM (active) in test [9]; 97.9 µM (active) in [10]; 111 µM (inconclusive) in test [14]; 3.75 µM (inconclusive) in [15].

Consider `Nc1c(Br)cc(Br)c2c1C(=O)c1c(cccc1S(=O)(=O)O)C2=O`, for which the half-inhibitory concentration (IC50) in [7] is 96.1 µM (active).
